Data as given in paper PMC10952572, “Improved PIEZO1 agonism through 4‐benzoic acid modification of Yoda1” (British Journal of Pharmacology, 2023).

How the values were obtained:
[1] = molecular target: T1, PIEZO1 channels endogenously expressed in HUVECs (Homo sapiens, UniProt Q92508); test: Intracellular Ca2+ measurement in HUVECs; type: cell-based; settings: peak ΔCa2+i, Hill fit, read-out: EC50 (estimated concentration for 50% effect)
T1 construct: HUVECs, which are a physiologically relevant cell type that endogenously expresses PIEZO1 channels; host or cells: HUVEC
Method: Human umbilical vein endothelial cells (HUVECs) purchased from PromoCell (#C‐12203) were maintained in endothelial cell […] medium 2 (ECGM‐2, PromoCell #C‐22111) supplemented with 500 pg·ml^−1 recombinant human vascular endothelial growth factor 165, 10 ng·ml^−1 recombinant human basic fibroblast growth factor, 200 ng·ml^−1 hydrocortisone, 22.5 μg·ml^−1 heparin and 2% (vol./vol.) fetal calf serum. […] After washing the cell monolayer with D‐PBS (Sigma #D8537), 2 ml pre‐warmed 0.05% trypsin– EDTA (Gibco #25300054) was added to 75 cm^2 flasks until the cells had detached (between 2 and 5 min at 37°C). Complete ECGM‐2 (8 ml) was added to inhibit the trypsin, the cells were counted and their density was adjusted before seeding into fresh vessels for maintenance cultivation or experimental purposes. The medium for maintenance of cultures was completely refreshed every 48 h. HUVECs were used for experiments after a minimum of three and a maximum of five passages. […]
HEK 293‐TREx cells and their stably transfected derivatives or transiently transfected HEK 293 or HeLa cells were seeded at a density of 7.5 × 10^4 cells per well into poly‐D‐lysine‐coated 96‐well plates. […] Measurements were made at room temperature on a 96‐well fluorescence plate reader (FlexStation 3, Molecular Devices, Sunnyvale, CA, USA) controlled by SoftMax Pro software v7.0.3. […]

[2] = Kinetic and thermodynamic solubility assays (Malvern Panalytical); type: physicochemical; settings: phosphate buffer, physiological pH 7.4; compared with Yoda1
Method: Kinetic and thermodynamic solubility assays were also performed by Malvern Panalytical (UK). Briefly, 1000 μl of 0.1 M phosphate buffer (pH 7.4) received either 25 μl of a 10 mM DMSO stock of test compound (for kinetic solubility assays) or 1 mg of test compound (for thermodynamic solubility assays). The mixtures were shaken on an orbital mixer to reach equilibrium for 1 or 24 h, respectively. The equilibrated solution was centrifuged, and the supernatant was removed to a fresh vial and then re‐centrifuged. High‐ and low‐dilution samples were prepared from the secondary supernatant and quantified by LC–MS/MS against a standard curve.

[3] = Microsomal half-life; type: in vitro ADME; settings: mouse liver microsomes; for half-life at 1 μM: 1 μM compound
Method: Compound half‐lives were measured by Malvern Panalytical (UK). Briefly, microsomal mouse liver microsomes (1 mg protein·ml^−1) were pre‐incubated with NADPH cofactor solution at 37°C. Biotransformation was initiated by addition and mixing of 1 μM test compound in a final volume of 350 μl; 25 μl aliquots were removed at 5 min intervals for 35 min and quenched in 300 μl ice‐cold methanol containing internal standard. The protein in the samples was then precipitated by centrifugation at 4°C, and the supernatant was analysed by LC–MS/MS to quantify the test parent compound remaining at each time point.

[4] = molecular target: T2, hPIEZO1 (Homo sapiens, UniProt Q92508); test: Pre-treatment with analogue before Yoda1 stimulus, Ca2+ assay in hPIEZO1-TREx cells; type: cell-based; settings: hPIEZO1-TREx, 10 μM compound 30 min pretreatment before 2 μM Yoda1
T2 construct: expressed in transfected cells
Method: HEK 293‐TREx cells and their stably transfected derivatives or transiently transfected HEK 293 or HeLa cells were seeded at a density of 7.5 × 10^4 cells per well into poly‐D‐lysine‐coated 96‐well plates. The plates were either commercially pre‐coated with poly‐D‐lysine (Greiner Bio‐One #655946) or (Greiner Bio‐One #655090) were coated in‐house with 35 μl of a 10 μg·ml^−1 poly‐D‐lysine (Bio‐Techne, Cultrex # 3439‐100‐01) in sterile deionised water per well for at least 24 h and rinsed three times with 100 μl per well sterile D‐PBS before addition of cells. HUVECs were seeded into tissue culture‐treated 96‐well plates (Greiner Bio‐One #655090) at a density of either 2.5 × 10^4 cells 24 h before experimentation or 1.25 × 10^4 cells 48 h before experimentation. Cells were incubated with 2 μM Fura‐2‐AM (Molecular Probes™) in the presence of 0.01% (wt./vol.) pluronic F127 (Sigma‐Aldrich #P2443) in standard bath solution (SBS) for 1 h at 37°C. Cells were washed with SBS for 30 min at room temperature. Alternatively, if inhibitors were being tested, these were added at this time, immediately following a wash in SBS. (−)‐Englerin A (Akbulut et al., [2015]) was used in SBS containing 0.01% pluronic acid as a dispersing agent to minimise aggregation of compound. Unless otherwise stated, the final concentration of DMSO was 0.2% (vol./vol). Working 2000× stock solutions of test compounds were freshly made in DMSO and diluted 1000‐fold in SBS during the 30 min SBS wash/inhibitor pre‐incubation period to obtain 2× solutions for injection. When testing the highest concentration of Yoda1, KC159 and KC289 (30 μM), the final DMSO concentration was 0.6% (vol./vol.). Measurements were made at room temperature on a 96‐well fluorescence plate reader (FlexStation 3, Molecular Devices, Sunnyvale, CA, USA) controlled by SoftMax Pro software v7.0.3. Recipient wells containing 80 μl SBS/0.2% (vol./vol.) DMSO vehicle or inhibitor compound received 80 μl 2× compound at an injection rate of 1 μl·s^−1, and the pipette introduced liquids from a height setting of 70 μl. No trituration was performed. For recordings using Fura‐2, the change in intracellular Ca was indicated as the ratio of Fura‐2 emission (510 nm) intensities at 340 and 380 nm excitation. Photomultipliers were set to medium sensitivity. SBS contained 130 mM NaCl, 5 mM KCl, 8 mM D‐glucose, 10 mM HEPES, 1.2 mM MgCl2 and 1.5 mM CaCl2, and the pH was adjusted to 7.4 with NaOH. The solution was filtered through a 0.2 μm bottle‐top filter prior to use and handled aseptically thereafter.
In view of the effect of Dooku1 described above, we tested if there are inhibitory actions of the new Yoda1 analogues by pre‐treating cells at 10 μM for 30 min prior to adding 2 μM Yoda1 (Figures 9 and S9, SI 1). All except KC157 and KC161 inhibited the action of Yoda1 on hPIEZO1 channels (Figures 9a and S9, SI 1). […] KC159 and KC289 were agonists, and so they may inhibit the effect of Yoda1 simply by pre‐activating the channels. KC158, KC161 and KC162 are also agonists of mPIEZO1 channels (Figure 3). […] Only the 2‐benzoic acid analogue (KC157) lacks agonist or antagonist properties.

[5] = molecular target: T3, mPIEZO2 (Mus musculus, UniProt Q8CD54); test: Intracellular Ca2+ measurement in HEK 293 cells overexpressing mPIEZO2; type: cell-based; settings: 10 μM, versus non-transfected cells
T3 construct: host or cells: HEK 293, transient
T3 sequence (Q8CD54 whole entry): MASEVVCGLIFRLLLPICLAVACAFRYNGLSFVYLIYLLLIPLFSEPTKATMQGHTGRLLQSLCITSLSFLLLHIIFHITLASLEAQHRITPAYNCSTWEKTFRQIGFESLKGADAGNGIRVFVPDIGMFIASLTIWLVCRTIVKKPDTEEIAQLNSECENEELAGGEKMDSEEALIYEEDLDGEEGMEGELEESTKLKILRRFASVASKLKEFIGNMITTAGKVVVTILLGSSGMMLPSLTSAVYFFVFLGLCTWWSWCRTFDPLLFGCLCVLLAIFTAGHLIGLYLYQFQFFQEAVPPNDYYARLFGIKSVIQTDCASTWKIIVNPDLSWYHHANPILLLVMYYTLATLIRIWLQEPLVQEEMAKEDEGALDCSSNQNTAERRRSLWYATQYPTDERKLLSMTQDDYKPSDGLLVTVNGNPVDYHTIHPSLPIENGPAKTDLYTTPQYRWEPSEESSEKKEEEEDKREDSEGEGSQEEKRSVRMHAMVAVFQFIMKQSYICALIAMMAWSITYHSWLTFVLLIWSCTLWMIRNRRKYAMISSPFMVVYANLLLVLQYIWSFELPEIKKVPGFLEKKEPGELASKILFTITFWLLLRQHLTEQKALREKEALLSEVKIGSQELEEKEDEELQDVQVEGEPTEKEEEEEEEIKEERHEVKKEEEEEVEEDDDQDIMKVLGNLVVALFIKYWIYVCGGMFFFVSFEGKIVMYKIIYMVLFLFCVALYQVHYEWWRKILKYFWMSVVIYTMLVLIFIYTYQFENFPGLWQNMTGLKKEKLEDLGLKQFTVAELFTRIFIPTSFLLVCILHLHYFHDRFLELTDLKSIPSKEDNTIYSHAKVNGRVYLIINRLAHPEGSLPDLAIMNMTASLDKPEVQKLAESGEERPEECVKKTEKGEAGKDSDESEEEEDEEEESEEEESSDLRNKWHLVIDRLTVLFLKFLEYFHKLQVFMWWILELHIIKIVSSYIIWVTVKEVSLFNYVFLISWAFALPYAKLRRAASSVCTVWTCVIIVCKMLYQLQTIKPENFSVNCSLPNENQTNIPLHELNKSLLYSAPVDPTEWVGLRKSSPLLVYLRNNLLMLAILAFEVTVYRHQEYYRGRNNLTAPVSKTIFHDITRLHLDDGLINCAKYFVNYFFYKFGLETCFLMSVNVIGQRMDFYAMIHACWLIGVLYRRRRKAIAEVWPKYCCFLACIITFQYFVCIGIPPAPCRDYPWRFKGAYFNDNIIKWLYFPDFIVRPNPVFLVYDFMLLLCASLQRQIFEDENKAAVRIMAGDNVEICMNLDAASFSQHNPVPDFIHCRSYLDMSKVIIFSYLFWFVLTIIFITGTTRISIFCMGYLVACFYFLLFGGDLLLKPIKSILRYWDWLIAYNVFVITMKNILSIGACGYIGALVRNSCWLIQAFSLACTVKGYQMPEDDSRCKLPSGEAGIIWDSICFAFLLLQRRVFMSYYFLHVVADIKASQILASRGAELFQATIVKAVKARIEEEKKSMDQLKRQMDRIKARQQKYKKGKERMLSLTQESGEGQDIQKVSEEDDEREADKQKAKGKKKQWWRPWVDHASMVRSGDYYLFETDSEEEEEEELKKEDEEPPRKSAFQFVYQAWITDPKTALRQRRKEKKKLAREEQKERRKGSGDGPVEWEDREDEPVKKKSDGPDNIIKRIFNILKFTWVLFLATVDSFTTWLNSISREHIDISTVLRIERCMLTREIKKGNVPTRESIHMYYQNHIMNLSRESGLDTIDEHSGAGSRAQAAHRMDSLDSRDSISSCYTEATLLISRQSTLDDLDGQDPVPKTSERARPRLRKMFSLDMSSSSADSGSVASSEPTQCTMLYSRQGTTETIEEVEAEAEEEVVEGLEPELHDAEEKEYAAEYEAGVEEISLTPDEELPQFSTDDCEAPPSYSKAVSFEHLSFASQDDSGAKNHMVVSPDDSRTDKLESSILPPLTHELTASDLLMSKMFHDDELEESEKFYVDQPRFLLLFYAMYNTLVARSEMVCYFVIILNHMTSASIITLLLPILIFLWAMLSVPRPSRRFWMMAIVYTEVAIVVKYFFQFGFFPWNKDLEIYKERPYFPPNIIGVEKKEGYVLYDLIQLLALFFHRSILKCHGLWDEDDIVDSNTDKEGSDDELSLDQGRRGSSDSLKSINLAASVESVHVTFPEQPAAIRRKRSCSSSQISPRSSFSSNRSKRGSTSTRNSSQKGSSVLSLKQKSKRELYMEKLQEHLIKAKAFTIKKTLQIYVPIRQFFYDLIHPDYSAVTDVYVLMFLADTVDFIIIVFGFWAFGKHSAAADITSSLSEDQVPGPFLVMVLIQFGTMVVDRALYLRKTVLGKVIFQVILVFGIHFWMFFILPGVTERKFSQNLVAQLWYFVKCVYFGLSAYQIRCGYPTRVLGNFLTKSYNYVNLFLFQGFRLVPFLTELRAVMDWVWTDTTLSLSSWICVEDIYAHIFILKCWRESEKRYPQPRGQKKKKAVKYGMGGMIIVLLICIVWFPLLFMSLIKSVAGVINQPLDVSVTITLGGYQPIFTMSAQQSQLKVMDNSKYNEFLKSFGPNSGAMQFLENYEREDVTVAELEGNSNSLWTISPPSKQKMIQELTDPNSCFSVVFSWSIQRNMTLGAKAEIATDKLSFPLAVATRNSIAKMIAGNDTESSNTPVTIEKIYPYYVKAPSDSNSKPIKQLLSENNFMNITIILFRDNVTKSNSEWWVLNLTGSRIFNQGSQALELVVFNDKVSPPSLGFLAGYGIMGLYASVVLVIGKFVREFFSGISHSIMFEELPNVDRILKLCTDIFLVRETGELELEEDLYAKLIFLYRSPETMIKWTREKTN
Method: mPIEZO2 pCMV‐Sport6 was a gift from Ardem Patapoutian (Coste et al., [2015]), obtained via Addgene (Addgene plasmid #81073; http://n2t.net/addgene:81073; RRID:Addgene_81073). It was sequenced for validation. Transient transfection of the plasmid was achieved using Lipofectamine 3000 in HEK 293 cells, 48 h prior to measurements being made.
HEK 293‐TREx cells and their stably transfected derivatives or transiently transfected HEK 293 or HeLa cells were seeded at a density of 7.5 × 10^4 cells per well into poly‐D‐lysine‐coated 96‐well plates. The plates were either commercially pre‐coated with poly‐D‐lysine (Greiner Bio‐One #655946) or (Greiner Bio‐One #655090) were coated in‐house with 35 μl of a 10 μg·ml^−1 poly‐D‐lysine (Bio‐Techne, Cultrex # 3439‐100‐01) in sterile deionised water per well for at least 24 h and rinsed three times with 100 μl per well sterile D‐PBS before addition of cells. HUVECs were seeded into tissue culture‐treated 96‐well plates (Greiner Bio‐One #655090) at a density of either 2.5 × 10^4 cells 24 h before experimentation or 1.25 × 10^4 cells 48 h before experimentation. […] Measurements were made at room temperature on a 96‐well fluorescence plate reader (FlexStation 3, Molecular Devices, Sunnyvale, CA, USA) controlled by SoftMax Pro software v7.0.3. […]

O=C([O-])c1ccc(-c2nnc(SCc3c(Cl)cccc3Cl)s2)cc1.[K+] [KC289]
EC50 [1]: 1140 nM | Kinetic solubility [2]: better solubility than Yoda1 | Thermodynamic solubility [2]: better solubility than Yoda1 | Microsomal half-life relative to Yoda1 [3]: at least 20 times | half-life at 1 μM [3]: 24.6 min | 2 μM Yoda1-evoked peak ΔCa2+i (ΔF340/380), median fold difference compared to DMSO pretreatment [4]: −2.5 fold | Ca2+ elevations in cells overexpressing mPIEZO2 [5]: not different from background signals in non‐transfected cells

O=C(O)c1ccc(-c2nnc(SCc3c(Cl)cccc3Cl)s2)cc1 [KC159]
EC50 [1]: 2280 nM | Kinetic solubility [2]: better solubility than Yoda1 | Thermodynamic solubility [2]: better solubility than Yoda1 | Microsomal half-life relative to Yoda1 [3]: at least 20 times | half-life at 1 μM [3]: 29.6 min | 2 μM Yoda1-evoked peak ΔCa2+i (ΔF340/380), median fold difference compared to DMSO pretreatment [4]: −1.7 fold | Ca2+ elevations in cells overexpressing mPIEZO2 [5]: not different from background signals in non‐transfected cells
